One data set has as its target T1, human DGAT1 (Homo sapiens, UniProt O75907).
T1 construct: made in house; host or cells: insect cells (sf9, sf21 or High Five) infected with baculovirus; total cell membranes
T1 sequence (O75907 1-488): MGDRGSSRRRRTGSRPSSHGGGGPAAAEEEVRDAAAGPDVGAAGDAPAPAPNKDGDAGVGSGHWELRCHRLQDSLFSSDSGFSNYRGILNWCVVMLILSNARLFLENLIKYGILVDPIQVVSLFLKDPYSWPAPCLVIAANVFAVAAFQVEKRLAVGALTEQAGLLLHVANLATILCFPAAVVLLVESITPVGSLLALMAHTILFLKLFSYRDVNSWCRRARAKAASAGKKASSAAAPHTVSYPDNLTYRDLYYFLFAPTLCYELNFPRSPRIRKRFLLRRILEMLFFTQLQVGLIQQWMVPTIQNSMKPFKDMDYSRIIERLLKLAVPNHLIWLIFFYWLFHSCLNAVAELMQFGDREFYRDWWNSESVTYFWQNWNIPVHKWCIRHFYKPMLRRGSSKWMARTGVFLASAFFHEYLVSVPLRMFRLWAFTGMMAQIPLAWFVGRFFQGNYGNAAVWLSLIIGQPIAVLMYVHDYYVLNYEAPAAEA
The experiment in a line: DGAT Scintillation Proximity Assay (SPA) with membranes of insect cells expressing human flagtag DGAT1. The settings on record: read-out: hDGAT1 IC50. The data set is classed as biochemical. The method in brief: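 Membranes (0.2 μg/well) from insect cells expressing human flag-tagged DGAT1 incubated with 10 μM compound and 200 μM dioleoyl glycerol substrate; mercuric chloride as inhibition control. Reaction stopped with WGA SPA beads in mercuric chloride, overnight bead coupling, then scintillation proximity signal read.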

SMILES strings stand for the structures. “And” between values parts separate entries of the source, which are not always exact repeats. Equal entries are not always repeated. A value given as a limit tells only on which side of the number the result lay.

In turn, `Cc1nc(N)c2c(n1)OC(C)(C)C(c1ccc([C@H]3CC[C@H](C(=O)O)CC3)cc1)=N2` [Example 2-255] gave a melting point of over 250 °C. The concentration for half-maximal inhibition (IC50) at human DGAT1 lay within 10 to 100 nM.
`Cc1nc(N)c2c(n1)OC(C)(C)C(c1ccc([C@H]3CC[C@H](C(=O)NS(C)(=O)=O)CC3)cc1)=N2` [Example 2-256] displayed a melting point of 172 to 175 °C. In addition, at human DGAT1, the IC50 was in the range of 10 to 100 nM.
Compound `Cc1nc(N)c2c(n1)OC(C)(C)C(c1ccc([C@H]3CC[C@H](C(=O)NC(C)(C)CO)CC3)cc1)=N2` [Example 2-257] came in with a melting point of 220 to 225 °C. For the same compound, at human DGAT1, the IC50 fell in the range of 10 to 100 nM.
`Cc1nc(N)c2c(n1)OC(C)(C)C(c1ccc([C@H]3CC[C@H](C(=O)N4C[C@@H](O)[C@@H](O)C4)CC3)cc1)=N2` [Example 2-258] registered a melting point of over 250 °C. For the same compound, the concentration for half-maximal inhibition (IC50) at human DGAT1 was in the range of 10 to 100 nM.
`Cc1nc(N)c2c(n1)OC(C)(C)C(c1ccc([C@H]3CC[C@H](CSCC(=O)O)CC3)cc1)=N2` [Example 2-259]: the melting point lay within 271 to 277 °C. Also, the IC50 at human DGAT1 was in the range of 10 to 100 nM.
In turn, `Cc1nc(N)c2c(n1)OC(C)(C)C(c1ccc([C@H]3CC[C@H](CSC(C)(C)C(=O)O)CC3)cc1)=N2` [Example 2-260] had a melting point of 235 to 239 °C. Besides, at human DGAT1, the IC50 lay in the range of 10 to 100 nM.
Compound `Cc1nc(N)c2c(n1)OC(C)(C)C(c1ccc([C@H]3CC[C@H](CS(=O)(=O)CC(=O)O)CC3)cc1)=N2` [Example 2-261] displayed a melting point of 225 to 227 °C. The IC50 on human DGAT1 was 10 to 100 nM.
The corresponding values for `Cc1nc(N)c2c(n1)OC(C)(C)C(c1ccc([C@H]3CC[C@H](C[S+]([O-])CC(=O)O)CC3)cc1)=N2` (stereo partly shown) [Example 2-262] are over 166 °C and 10 to 100 nM.
In turn, `Cc1nc(N)c2c(n1)OC(C)(C)C(c1ccc([C@H]3CC[C@H](c4nn[nH]n4)CC3)cc1)=N2` [Example 2-263] had a melting point of over 250 °C. Further, the IC50 at human DGAT1 is under 10 nM.
`Cc1nc(N)c2c(n1)OC(C)(C)C(c1ccc([C@H]3CC[C@H](C(=O)Nc4nn[nH]n4)CC3)cc1)=N2` [Example 2-264]: the melting point is over 250 °C. In addition, the IC50 at human DGAT1 fell in the range of 10 to 100 nM.
The compound `CC(=O)N1CCC(c2ccc(C3=Nc4c(N)ncnc4OC3(C)C)cc2)CC1` [Example 3-3] displayed a melting point of 232 to 237 °C. In addition, the IC50 at human DGAT1 was over 100 nM.
In the case of `CC1(C)Oc2ncnc(N)c2N=C1c1ccc(C2CCN(C(=O)C(=O)O)CC2)cc1` [Example 3], the melting point was 188 to 190 °C and 188.8 to 190.9 °C. The half-inhibitory concentration (IC50) on human DGAT1 lay in the range of 10 to 100 nM.
`CCOC(=O)C1CCN(c2ccc(C3=Nc4c(N)ncnc4OC3(C)C)cc2)CC1` [Example 4-3] came in with a melting point of 176 to 177 °C. Besides, the IC50 on human DGAT1 is over 100 nM.
In the same order, the values of `CC1(C)Oc2ncnc(N)c2N=C1c1ccc(N2CCC(C(=O)O)CC2)cc1` [Example 4-4] are over 240 °C and 10 to 100 nM.
The corresponding values for `CCOC(=O)N1CCN(c2ccc(C3=Nc4c(N)ncnc4OC3(C)C)cc2)CC1` [Example 4-5] are 174 to 175 °C and over 100 nM.
In the same order, the values of `CC1(C)Oc2ncnc(N)c2N=C1c1ccc(N2CCCC2)cc1` [Example 4-6] are 191 to 196 °C and over 100 nM.
Turning to `CC1(C)Oc2ncnc(N)c2N=C1c1cccc(OCc2ccccc2)c1` [Example 5-2], the melting point fell in the range of 130 to 131 °C. Moreover, the half-maximal inhibitory concentration (IC50) at human DGAT1 was over 100 nM.
`CC1(C)Oc2ncnc(N)c2N=C1c1cccc(OCC2CCCCC2)c1` [Example 5-3]: the melting point was 151 to 152 °C. The 50% inhibitory concentration (IC50) at human DGAT1 is over 100 nM.
With `CC1(C)Oc2ncnc(N)c2N=C1c1cccc(Cl)c1` [Example 5], the melting point was 117 to 133 °C and 117.2 to 133.4 °C. Besides, the half-maximal inhibitory concentration (IC50) at human DGAT1 is over 100 nM.
Compound `Cc1nc(N)c2c(n1)OC(C)(C)C(c1ccc([C@H]3CC[C@H](CNC(=O)CO)CC3)c(Cl)c1)=N2` [Example 6-2] came in with a melting point of 229 to 232 °C. For the same compound, at human DGAT1, the concentration for half-maximal inhibition (IC50) lay within 10 to 100 nM.
In the same order, the values of `Cc1nc(N)c2c(n1)OC(C)(C)C(c1ccc([C@H]3CC[C@H](CC(=O)O)CC3)c(N)c1)=N2` [Example 6-3] are 280 °C (dec.) and 10 to 100 nM.
`Cc1nc(N)c2c(n1)OC(C)(C)C(c1ccc([C@H]3CC[C@H](CC(=O)O)CC3)c(N3CCCC3=O)c1)=N2` [Example 6-4]: the melting point is 177 °C (dec.). Further, the IC50 on human DGAT1 is over 100 nM.
For `CCOc1cc(C2=Nc3c(N)nc(C)nc3OC2(C)C)ccc1[C@H]1CC[C@H](CC(=O)O)CC1` [Example 6-8], the melting point is 224 to 225 °C. Moreover, the 50% inhibitory concentration (IC50) on human DGAT1 lay within 10 to 100 nM.
`Cc1nc(N)c2c(n1)OC(C)(C)C(c1ccc([C@H]3CC[C@H](CC(=O)O)CC3)c(F)c1)=N2` [Example 6-9] showed a melting point of over 269 °C. For the same compound, the half-maximal inhibitory concentration (IC50) at human DGAT1 was under 10 nM.
The corresponding values for `Cc1nc(N)c2c(n1)OC(C)(C)C(c1ccc([C@H]3CC[C@H](CNC(=O)CO)CC3)c(F)c1)=N2` [Example 6-10] are 212 to 214 °C and 10 to 100 nM.
For `Cc1nc(N)c2c(n1)OC(C)(C)C(c1ccc([C@H]3CC[C@H](Cc4noc(=O)[nH]4)CC3)c(F)c1)=N2` [Example 6-11], the melting point was over 282 °C. Further, the IC50 at human DGAT1 lay in the range of 10 to 100 nM.
The compound `Cc1nc(N)c2c(n1)OC(C)(C)C(c1ccc([C@H]3CC[C@H](Cc4cc(O)[nH]n4)CC3)c(Cl)c1)=N2` [Example 6-12] had a melting point of 171 to 173 °C. The 50% inhibitory concentration (IC50) on human DGAT1 was under 10 nM.
As for `CCNC(=O)NC[C@H]1CC[C@H](c2ccc(C3=Nc4c(N)nc(C)nc4OC3(C)C)cc2Cl)CC1` [Example 6-13], the melting point was over 250 °C. Moreover, the half-maximal inhibitory concentration (IC50) on human DGAT1 is under 10 nM.
Turning to `Cc1nc(N)c2c(n1)OC(C)(C)C(c1ccc([C@H]3CC[C@H](CNC(=O)OCC(C)C)CC3)c(Cl)c1)=N2` [Example 6-14], the melting point was 205 to 209 °C. In addition, the half-maximal inhibitory concentration (IC50) on human DGAT1 is 10 to 100 nM.
For the compound `Cc1nc(N)c2c(n1)OC(C)(C)C(c1ccc([C@H]3CC[C@H](CNC(=O)N4CCOCC4)CC3)c(Cl)c1)=N2` [Example 6-15], the melting point lay in the range of 225 to 228 °C. In addition, the half-inhibitory concentration (IC50) at human DGAT1 fell in the range of 10 to 100 nM.
In turn, `Cc1nc(N)c2c(n1)OC(C)(C)C(c1ccc([C@H]3CC[C@H](CNC(=O)N(C)C)CC3)c(Cl)c1)=N2` [Example 6-16] yielded a melting point of over 250 °C. Further, at human DGAT1, the IC50 was over 100 nM.
In the case of `Cc1nc(N)c2c(n1)OC(C)(C)C(c1ccc([C@H]3CC[C@H](CN4CCOC4=O)CC3)c(Cl)c1)=N2` [Example 6-17], the melting point was over 250 °C. The half-maximal inhibitory concentration (IC50) at human DGAT1 was over 100 nM.
The compound `Cc1nc(N)c2c(n1)OC(C)(C)C(c1ccc([C@H]3CC[C@H](CNC(=O)C(C)(C)O)CC3)c(Cl)c1)=N2` [Example 6-18] displayed a melting point of over 250 °C. The IC50 on human DGAT1 was in the range of 10 to 100 nM.
In the same order, the values of `Cc1nc(N)c2c(n1)OC(C)(C)C(c1ccc([C@H]3CC[C@H](CN4CCCC(O)C4=O)CC3)c(Cl)c1)=N2` (stereo partly shown) [Example 6-19] are 225 to 226 °C and 10 to 100 nM.
For `CC1(C)Oc2nc(C(F)(F)F)nc(N)c2N=C1c1ccc([C@H]2CC[C@H](CC(=O)O)CC2)c(Cl)c1` [Example 6-20], the melting point was in the range of 247 to 248 °C. Further, the IC50 at human DGAT1 was under 10 nM.
`CC1(C)Oc2nc(C(F)(F)F)nc(N)c2N=C1c1ccc([C@H]2CC[C@H](CN3CCOC3=O)CC2)c(Cl)c1` [Example 6-21]: the melting point is over 250 °C. For the same compound, on human DGAT1, the IC50 was in the range of 10 to 100 nM.
Consider `CC1(C)Oc2nc(C(F)(F)F)nc(N)c2N=C1c1ccc([C@H]2CC[C@H](CNC(N)=O)CC2)c(Cl)c1` [Example 6-22], for which the melting point is 147 °C (dec.). The IC50 on human DGAT1 lay within 10 to 100 nM.
Consider `Cc1nc(N)c2c(n1)OC(C)(C)C(c1ccc([C@H]3CC[C@H](CNC(N)=O)CC3)c(Cl)c1)=N2` [Example 6-23], for which the melting point is 160 to 166 °C. The half-inhibitory concentration (IC50) at human DGAT1 is 10 to 100 nM.
As for `CC1(C)Oc2nc(C(F)(F)F)nc(N)c2N=C1c1ccc([C@H]2CC[C@H](CNC(=O)CO)CC2)c(Cl)c1` [Example 6-24], the melting point lay within 213 to 216 °C. Further, at human DGAT1, the IC50 was in the range of 10 to 100 nM.
The compound `CC1(C)Oc2nc(C(F)(F)F)nc(N)c2N=C1c1ccc([C@H]2CC[C@H](Cc3nc(=O)o[nH]3)CC2)c(Cl)c1` [Example 6-25] showed a melting point of 236 to 237 °C. Besides, the 50% inhibitory concentration (IC50) on human DGAT1 lay within 10 to 100 nM.
In the same order, the values of `Cc1nc(N)c2c(n1)OC(C)(C)C(c1ccc([C@H]3CC[C@H](CC(=O)O)CC3)c(Cl)c1)=N2` [Example 6] are over 230 °C and under 10 nM.

The values above are taken from patent US7244727B2, “Fused bicyclic nitrogen-containing heterocycles” (Japan Tobacco Inc., priority 2002, dated 2007).
